# In patent US20260240812A1, “TREATMENT FOR AMYOTROPHIC LATERAL SCLEROSIS (ALS)” (Zydus Lifesciences Limited, priority 2023, published 2026):
# Several values for one entry are separate records, joined by “and”; a condition that tells them apart may be missing. Equal entries are not always repeated.
# Tested on: patients with Amyotrophic Lateral Sclerosis (ALS)
# Test: Phase 2 placebo controlled, randomized, double blind 12-week study, ALSFRS-R total score
# Assay type: in vivo, human
# Description: Efficacy, Safety, Tolerability, Pharmacokinetics and Pharmacodynamics of Formula (I) in Patients with Amyotrophic Lateral Sclerosis • Protocol Title: A phase 2, proof-of-concept, placebo controlled, randomized, double blind study of compound of formula (I) to evaluate the efficacy, safety, tolerability, pharmacokinetics and pharmacodynamics in patients with Amyotrophic Lateral Sclerosis (ALS). • Study design: A phase 2, proof-of-concept, placebo controlled, randomized, double blind, 12-week study of compound of formula (I) to evaluate the efficacy, safety, pharmacokinetics, and pharmacodynamics in patients with Amyotrophic Lateral Sclerosis (ALS). • Study population: Male or female patients aged between 18-80 years (both inclusive at screening) with diagnosis of Amyotrophic Lateral Sclerosis who meet eligibility criteria • Number of Patients: Approximately 24 patients (06 patients in each arm) are enrolled. • Duration of Patient Participation: 114±5 Days (Including 28 days of screening)
# • To measure the efficacy of the treatment using the slope of progression with the revised Amyotrophic Lateral Sclerosis Functional Rating Scale (ALSFRS-R)
# • Change from baseline in the ALSFRS-R total score [Time Frame: From baseline to Week 12] […]
compound,measurement,setting,value
CN1CCC[C@]1(C)/C=C/S(=O)(=O)NC(=O)Nc1c2c(cc3c1CCC3)CCC2 [formula (I)],Change from baseline in the ALSFRS-R total score,"baseline to Week 12, one line per patient, arm not given",−8 points and −1 points and 4 points and 0 points and 1 points and −3 points
same,"ALSFRS-R score, result in words","over 12 weeks, ALS patients",stable and improved ALSFRS-R score in some patients
